Reference: US20230365632A1, “A GROUP OF PEPTIDE DERIVATIVE OMICSYNINS WITH ANTIVIRAL ACTIVITY AND USES THEREOF” (INSTITUTE OF MEDICINAL BIOTECHNOLOGY CHINESE ACADEMY OF …, priority 2020, published 2023)
Values after ≈ are worked out from the molar mass of the structure shown. Values joined by “and” are separate entries in the source; they are usually repeats but may differ in a detail not shown here. Equal values may be shown once. Read-outs that look alike come from different tables or passages of the source. *1 amine or outer side, *2 acyl side, *3 side chain or, on linkers, in order; H or OH if unused. Where a SMILES comes first, the peptide text is derived from it. [ ]: non-standard residue; d: D form. Phe(ol) = N[CH](CO)Cc1ccccc1; CO = O=C([*:1])[*:2]

What was measured:
[1] = test system: influenza virus A/wuhan/359/95 (H3N2); assay: organism not typed; assay type: cell-based
[2] = in vitro; conditions: dog
[3] = test system: coronavirus HCoV-229E; assay: CPE inhibition assay against HCoV-229E in Huh7.5 cells; assay type: cell-based
[4] = in vitro; conditions: human
[5] = test system: Madin-Darby canine kidney cells (MDCK)
[6] = test system: influenza virus A/Fort Monmouth/1/47 (H1N1); assay: organism not typed; assay type: cell-based; conditions: MDCK, read-out: A/Fort Monmouth/1/47(H1N1) IC50
[7] = test system: coronavirus HCoV-OC43; assay: qRT-PCR of HCoV-OC43 N protein mRNA in C3A cells; assay type: cell-based; conditions: 24 hours, corrected for GAPDH, read-out: IC50 for inhibitory activity of coronavirus HCoV-OC43
[8] = test system: Huh7.5 cells; assay: 50% toxicity concentration (TC50) by CPE assay in Huh7.5 cells; conditions: read-out: TC50, Table 10
[9] = Human coronavirus 229E, Huh7.5, read-out: HCoV-229E IC50
[10] = MDCK, read-out: A/Wuhan/359/1995 (H3N2) IC50

Q: With `CC(C)[C@H](NC(=O)[C@H](CCCNC(=N)N)NC(=O)N[C@@H](Cc1ccccc1)C(=O)O)C(=O)N[C@H](C=O)CCCNC(=N)N` [antipain, Antipain] ({Phe-CO}-Arg-Val-Arg-aldehyde) as the molecule, how does the IC50 ([1]; MDCK, Table 9; CPE method; mean ± SD, three repeats; read-out: A/Wuhan/359/1995 (H3N2) IC50) read?
A: Its IC50 is 3.16 ± 0.94 µM.

Q: And the CC50 [2]?
A: The CC50 was over 331 µM.

Q: And the IC50 [3, 9]?
A: Its IC50 is 1.57 ± 0.46 µM.

Q: And the CC50 [4]?
A: The CC50 was over 165 µM.

Q: What does the source list for `CC(C)C[C@H](NC(=O)[C@@H](NC(=O)N[C@@H](Cc1ccccc1)C(=O)O)[C@@H]1CCN=C(N)N1)C(=O)N[C@H](C=O)Cc1ccccc1` [chymostatin, Chymostatin]?
A: IC50 [1, 10]: 329 µM; CC50 [2]: > 329 µM; IC50 [3, 9]: 23.7 ± 5.66 µM; CC50 [4]: > 165 µM

Q: For `CCOC(=O)C1=C[C@@H](OC(CC)CC)[C@H](NC(C)=O)[C@@H](N)C1` [Oseltamivir], which IC50 ([1]; MDCK, Table 1; positive drug; read-out: A/wuhan/359/95(H3N2) IC50) is on record?
A: The IC50 was 1.63 µg/mL.

Q: And the IC50 ([1]; MDCK, Table 3; positive drug; read-out: A/Wuhan/359/1995 (H3N2) IC50)?
A: Its IC50 is 2.01 µg/mL.

Q: And the IC50 ([1]; MDCK, Table 4; positive drug; read-out: A/Wuhan/359/1995 (H3N2) IC50)?
A: The IC50 was 1.77 µg/mL.

Q: What about the IC50 ([1]; MDCK; Table 2; positive drugs; read-out: A/wuhan/359/95(H3N2) IC50) of the same molecule?
A: The IC50 was 1.63 µg/mL.

Q: What about the IC50 ([1]; MDCK; read-out: A/Wuhan/359/1995 (H3N2) IC50) of the same molecule?
A: The IC50 was 2.47 µg/mL.

Q: What about the TC50 ([5]; Table 1, positive drug) of the same molecule?
A: The TC50 was 1260 µg/mL (≈ 4030 µM).

Q: What about the TC50 ([5]; Table 2, positive drugs) of the same molecule?
A: Its TC50 is 1260 µg/mL (≈ 4030 µM).

Q: What about the TC50 ([5]; Table 3, positive drug) of the same molecule?
A: Its TC50 is 577.4 µg/mL (≈ 1850 µM).

Q: What about the TC50 ([5]; Table 4, positive drug) of the same molecule?
A: Its TC50 is over 1000 µg/mL.

Q: And the TC50 ([5]; Table 6, 50E-C18 components and positive drugs)?
A: Its TC50 is 577.35 µg/mL (≈ 1850 µM).

Q: And the IC50 ([6]; Table 2, positive drugs)?
A: Its IC50 is 2.01 µg/mL (≈ 6.43 µM).

Q: What does the source list for `CCOC(=O)C1=C[C@@H](OC(CC)CC)[C@H](NC(C)=O)[C@@H](N)C1` [Oseltamivir Phosphate]?
A: IC50 ([1]; MDCK, Table 5; HP20 eluates and positive drugs; read-out: A/Wuhan/359/1995 (H3N2) IC50): 2.01 µg/mL; TC50 ([5]; Table 5, HP20 eluates and positive drugs): 577.35 µg/mL

Q: What does the source list for `CC(C)C(NC(=O)C(CCCNC(=N)N)NC(=O)NC(Cc1ccccc1)C(=O)O)C(=O)NC(CO)Cc1ccccc1` (stereo not drawn) [Omicsynin A3, Chymostatinol A] ({Phe-CO}-Arg-Val-[Phe(ol)]; configuration not given here)?
A: IC50 [1, 10]: 87.9 ± 23.7 µM; CC50 [2]: > 336 µM; IC50 [3, 9]: 57.4 ± 15.6 µM; CC50 [4]: > 168 µM

Q: With `CC(C)[C@H](NC(=O)[C@H](CCCNC(=N)N)NC(=O)N[C@@H](Cc1ccccc1)C(=O)O)C(=O)N[C@H](C=O)CCCNC(=N)N` [Omicsynin B4, Antipain] ({Phe-CO}-Arg-Val-Arg-aldehyde) as the molecule, how does the IC50 ([1]; Table 9; CPE method; mean ± SD, three repeats; read-out: A/Wuhan/359/1995 (H3N2) IC50) read?
A: The IC50 was 2.43 ± 0.71 µM.

Q: What about the CC50 ([5]; read-out: TC50, Table 9, CPE method) of the same molecule?
A: Its CC50 is over 331 µM.

Q: And the IC50 [7]?
A: Its IC50 is 28.7 µM.

Q: What about the IC50 ([3]; Table 10, Huh7.5 cells, 100 TCID50, read-out: HCoV-229E IC50) of the same molecule?
A: Its IC50 is 0.89 ± 0.22 µM.

Q: And the CC50 [8]?
A: Its CC50 is over 165 µM.

Q: Which IC50 [1, 10] does the source give for `NC(=O)c1ncn([C@@H]2O[C@H](CO)[C@@H](O)[C@H]2O)n1` [RBV, ribavirin] here?
A: Its IC50 is 2.47 µg/mL and 13.2 µM.

Q: And the IC50 ([1]; MDCK, read-out: A/wuhan/359/95(H3N2) IC50)?
A: Its IC50 is 1.63 µg/mL.

Q: And the CC50 [2]?
A: Its CC50 is over 819 µM.

Q: And the IC50 [6]?
A: Its IC50 is 0.82 µg/mL (≈ 3.36 µM).

Q: What about the IC50 [3, 9] of the same molecule?
A: Its IC50 is 25.1 ± 6.1 µM.

Q: What about the CC50 [4] of the same molecule?
A: The CC50 was over 410 µM.
